In patent US6489302B1, “Saccharide conjugates” (Deutches Krebsforschungszentrum Stiftung Des Offentlichen …, priority 1995, dated 2002):

Experiments:
[1] = tested on: tumor; assay: Applicant's finding: anti-tumor properties
[2] = Whole-body autoradiography of the 14C-labeled conjugate in rats after i.v. injection (organ distribution); format: in vivo, rat
Protocol: (§1) This conjugate was labeled with ^14C according to common methods and used for the following treatment of rats.
(§2) The rats used were female Sprague-Dawley rats (SD rats; obtainable from Charles River Wiga, Sulzfeld, Germany) and male Copenhagen rats (obtainable from Harlan Sprague Dawley, Ind., U.S.A.).
(§3) Groups of 5 healthy SD rats were given i.v. injections of 315 mg/kg β-D-Glc-IMP and 56.2 mg/kg of β-D-Glc-IMP, respectively. 5 of the tumor-bearing Copenhagen rats were given 315 mg/kg of β-D-Glc-IMP. The radioactive dose per injection was about 20 μCi. One animal of every group was killed with CO2 10 minutes, 1 hours, 2 hours, 8 hours and 24 hours, respectively, after the administration of the injection. The tissues of the rats were prepared for a common microtome preparation and the sections were subjected to autoradiography as described by Ullberg, S., (1977), in: Alvefeldt, O. (ed.) Special issue on whole-body autoradiography. Science Tools, Bromma, Sweden, p. 2).

[3] = tested on: Dunning prostate tumor tissue; assay: Whole-body autoradiography of the 14C-labeled conjugate in tumor-bearing Copenhagen rats; format: in vivo, rat; settings: Copenhagen rats with transplanted Dunning prostate tumor, 315 mg/kg i.v.
Text: as §1, §2
Fresh pieces (2×2 mm) of Dunning prostate tumor tissue were transplanted into the Copenhagen rats. The tumors were allowed to grow for about one week until they were well palpable but not yet necrotic.
as §3

[4] = Applicant's finding: side-effects; settings: as compared to cyclophosphoramide and isophosphoramide

SMILES: O=P(NCCCl)(NCCCl)OC1OC(CO)C(O)C(O)C1O [β-D-Glc-IMP, β-D-Glucosylisophosphoramide]
- anti-tumor properties [1]: good anti-tumor properties
- accumulation in organs, particularly the liver, kidneys, thymus and thyroid gland ([2]; 10 minutes after i.v. injection, 315 mg/kg or 56.2 mg/kg): accumulated in organs
- presence in central nervous system, including the brain ([2]; 8 hours after i.v. injection): contained the conjugate
- accumulation in tumor tissue [3]: strong accumulation
- side-effects [4]: extremely low side-effects
